# Key:
# 22Rv1 Cell = assay: 22RV1 cell growth inhibition, CellTiter-Glo, 72 h; format: cell-based; conditions: 22RV1 cells, 72 h culture
# How it was run: (§1)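 Cells seeded at 5×10^3/well overnight in RPMI-1640/10% FBS, then exposed to compound (0.5% DMSO final) for 72 h at 37 °C.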
# vCap Cell = assay: vCap cell growth inhibition, CellTiter-Glo, 72 h; format: cell-based; conditions: vCap cells, 72 h culture
# How it was run: as §1
"IC50 (22Rv1 Cell; Homo sapiens, 22Rv1, 72 h) [µM]","IC50 (vCap Cell; Homo sapiens, VCaP, 72 h) [µM]",IC50 (22Rv1 Cell) [µM],IC50 (vCap Cell) [µM],Structure (SMILES)
> 1,> 1,–,–,Cn1cc(-c2cc3c(cc2C(F)F)N(c2cccc4c2CN(C(=O)C2CC2)CCC4)CCC3)cn1 [Compound M001214]
> 1,> 1,–,–,"Cn1cc(-c2cc3c(cc2C(F)F)N(c2cccc4c2CNC(=O)CC4)CCC3)cn1 [Compound M001215, 9-[7-(difluoromethyl)-6-(1-methylpyrazol-4-yl)-3,4-dihydro-2H-quinolin-1-yl]-1,2,4,5-tetrahydro-2-benzazepin-3-one]"
> 1,> 1,–,–,CC(=O)N1Cc2cc(C3CCNC(=O)C3)cc(N3CCCc4cc(-c5cnn(C)c5)ccc43)c2C1 (centres unmarked) [Compound M001218]
< 1,< 1,–,–,"CC(=O)N1Cc2cc(C3CCNC(=O)C3)cc(N3CCCc4cc(-c5cnn(C)c5)c(C5CC5)cc43)c2C1 (centres unmarked) [Compound M001219, 4-{2-acetyl-7-[7-cyclopropyl-6-(1-methylpyrazol-4-yl)-3,4-dihydro-2H-quinolin-1-yl]-1,3-dihydroisoindol-5-yl}piperidin-2-one]"
< 1,< 1,–,–,CCN1CC(c2cc3c(c(N4CCCc5cc(-c6cnn(C)c6)c(C(F)F)cc54)c2)CN(C(=O)NC)CC3)CCC1=O (centres unmarked) [Compound M001221]
< 1,< 1,–,–,CNC(=O)N1CCc2cc(C3CCC(=O)N(CCOC)C3)cc(N3CCCc4cc(-c5cnn(C)c5)c(C(F)F)cc43)c2C1 (centres unmarked) [Compound M001222]
< 1,< 1,–,–,CCN1CC(c2cc3c(c(N4CCCc5cc(-c6cnn(C)c6)c(C(F)F)cc54)c2)CN(C(C)=O)C3)CCC1=O (centres unmarked) [Compound M001224]
> 1,< 1,–,–,COCCN1CC(c2cc3c(c(N4CCCc5cc(-c6cnn(C)c6)c(C(F)F)cc54)c2)CN(C(C)=O)C3)CCC1=O (centres unmarked) [Compound M001225]
> 1,> 1,–,–,CCOC(=O)N1CCc2cc(Cl)cc(N3CCCc4cc(-c5cnn(C)c5)c(C(F)F)cc43)c2C1 [Compound M001228]
> 1,> 1,–,–,CCNC(=O)N1CCc2cc(Cl)cc(N3CCCc4cc(-c5cnn(C)c5)c(C(F)F)cc43)c2C1 [Compound M001229]
< 1,< 1,–,–,CNC(=O)N1CCc2cc(C3CCC(=O)N(CC(C)(C)O)C3)cc(N3CCCc4cc(-c5cnn(C)c5)c(C(F)F)cc43)c2C1 (centres unmarked) [Compound M001230]
< 1,< 1,–,–,CC(=O)N1Cc2cc(C3CCC(=O)N(CC(C)(C)O)C3)cc(N3CCCc4cc(-c5cnn(C)c5)c(C(F)F)cc43)c2C1 (centres unmarked) [Compound M001231]
< 1,< 1,–,–,CNC(=O)N1CCc2cc([C@H]3CCC(=O)N(C)C3)cc(N3CCCc4cc(-c5cnn(C)c5)c(C(F)F)cc43)c2C1 [Compound M001234]
< 1,< 1,–,–,CNC(=O)N1CCc2cc([C@@H]3CCC(=O)N(C)C3)cc(N3CCCc4cc(-c5cnn(C)c5)c(C(F)F)cc43)c2C1 [Compound M001235]
> 1,> 1,–,–,"Cn1cc(-c2cc3c(cc2C(F)F)N(c2cccc4c2NC(=O)CCC4)CCC3)cn1 [Compound M001236, 9-[7-(difluoromethyl)-6-(1-methylpyrazol-4-yl)-3,4-dihydro-2H-quinolin-1-yl]-1,3,4,5-tetrahydro-1-benzazepin-2-one]"
< 1,< 1,–,–,"CNC(=O)N1CCc2cc(-c3ccc(=O)n(C)c3)cc(Nc3cc(C(F)F)c(-c4cnn(C)c4)cc3F)c2C1 [Compound M001239, 8-((5-(difluoromethyl)-2-fluoro-4-(1-methyl-1H-pyrazol-4-yl)phenyl)amino)-N-methyl-6-(1-methyl-6-oxo-1,6-dihydropyridin-3-yl)-3,4-dihydroisoquinoline-2(1H)-carboxamide]"
> 1,> 1,–,–,CNC(=O)N1Cc2nc(C3CCOCC3)nc(N3CCCc4cc(-c5cnn(C)c5)c(C(F)F)cc43)c2C1 [Compound M001244]
> 1,> 1,–,–,CC(=O)N1Cc2cc(C3CNC(=O)OC3)cc(N3CCCc4cc(-c5cnn(C)c5)c(C(F)F)cc43)c2C1 (centres unmarked) [Compound M001246]
–,–,< 1,< 1,CC(=O)N1Cc2cc(C3CCN(CC(C)O)C(=O)C3)cc(N3CCCc4cc(-c5cnn(C)c5)c(C(F)F)cc43)c2C1 (centres unmarked) [Compound M001249]
< 1,< 1,–,–,CC(=O)N1Cc2cc(C3CCN(CC(F)(F)F)C(=O)C3)cc(N3CCCc4cc(-c5cnn(C)c5)c(C(F)F)cc43)c2C1 (centres unmarked) [Compound M001252]
< 1,< 1,–,–,CNC(=O)N1CCc2cc(C3CCN(CC(F)(F)F)C(=O)C3)cc(N3CCCc4cc(-c5cnn(C)c5)c(C(F)F)cc43)c2C1 (centres unmarked) [Compound M001253]
> 1,> 1,–,–,"CCN1CCC(c2cc3c(c(N4CCCc5cc(-c6cnn(C)c6)c(C(F)F)cc54)c2)CN(C(=O)OC)CCC3)CC1=O (centres unmarked) [Compound M001260, methyl 9-(7-(difluoromethyl)-6-(1-methyl-1H-pyrazol-4-yl)-3,4-dihydroquinolin-1(2H)-yl)-7-(1-ethyl-2-oxopiperidin-4-yl)-1,3,4,5-tetrahydro-2H-benzo[c]azepine-2-carboxylate]"

"IC50 (22Rv1 Cell; Homo sapiens, 22Rv1, 72 h) [µM]","IC50 (vCap Cell; Homo sapiens, VCaP, 72 h) [µM]",IC50 (22Rv1 Cell) [µM],IC50 (vCap Cell) [µM],Structure (SMILES)
> 1,> 1,–,–,CCN1CCC(c2cc3c(c(N4CCCc5cc(-c6cnn(C)c6)c(C(F)F)cc54)c2)CN(C(N)=O)CCC3)CC1=O (centres unmarked) [Compound M001261]
> 1,> 1,–,–,CCN1CCC(c2cc3c(c(N4CCCc5cc(-c6cnn(C)c6)c(C(F)F)cc54)c2)CN(C(=O)NC)CCC3)CC1=O (centres unmarked) [Compound M001263]
> 1,> 1,–,–,CCN1CCC(c2cc3c(c(N4CCCc5cc(-c6cnn(C)c6)c(C(F)F)cc54)c2)CN(C(C)=O)CCC3)CC1=O (centres unmarked) [Compound M001264]
> 1,< 1,–,–,CNC(=O)N1CCc2cc(C3CCN(OC)CC3)cc(N3CCCc4cc(-c5cnn(C)c5)c(C(F)F)cc43)c2C1 [Compound M001268]
> 1,> 1,–,–,CON1CCC(c2cc3c(c(N4CCCc5cc(-c6cnn(C)c6)c(C(F)F)cc54)c2)CN(C(C)=O)C3)CC1 [Compound M001269]
> 1,> 1,–,–,COC(=O)N1CCc2cc(C3CCC(=O)N(CC(C)(C)O)C3)cc(N3CCCc4cc(-c5cnn(C)c5)c(C(F)F)cc43)c2C1 (centres unmarked) [Compound M001272]
> 1,> 1,–,–,"CON1CCC(c2cc3c(c(N4CCCc5cc(-c6cnn(C)c6)c(C(F)F)cc54)c2)CN(C(=O)OC(C)(C)C)CC3)CC1 [Compound M001274, tert-butyl 8-[7-(difluoromethyl)-6-(1-methylpyrazol-4-yl)-3,4-dihydro-2H-quinolin-1-yl]-6-(1-methoxypiperidin-4-yl)-3,4-dihydro-1H-isoquinoline-2-carboxylate]"
> 1,> 1,–,–,CON1CCC(c2cc3c(c(N4CCCc5cc(-c6cnn(C)c6)c(C(F)F)cc54)c2)CN(C(=O)OC(C)(C)C)C3)CC1 [Compound M001275]
< 1,> 1,–,–,CNC(=O)N1CCc2cc(C3CCN(CC(C)(C)O)C(=O)C3)cc(N3CCCc4cc(-c5cnn(C)c5)c(C(F)F)cc43)c2C1 (centres unmarked) [Compound M001280]
> 1,> 1,–,–,CC(=O)N1Cc2cc(C3CCN(C4CCC(=O)NC4=O)C(=O)C3)cc(N3CCCc4cc(-c5cnn(C)c5)c(C(F)F)cc43)c2C1 (centres unmarked) [Compound M001288]
< 1,< 1,–,–,CC(=O)N1Cc2cc(C3CCN(S(C)(=O)=O)CC3)cc(N3CCCc4cc(-c5cnn(C)c5)c(C(F)F)cc43)c2C1 [Compound M001296]
< 1,< 1,–,–,"CC(=O)N1Cc2cc(C3CCC(S(C)(=N)=O)CC3)cc(N3CCCc4cc(-c5cnn(C)c5)c(C(F)F)cc43)c2C1 (centres unmarked) [Compound M001297, (4-(2-acetyl-7-(7-(difluoromethyl)-6-(1-methyl-1H-pyrazol-4-yl)-3,4-dihydroquinolin-1(2H)-yl)isoindol-5-yl)cyclohexyl)(imino)(methyl)-16-sulfanone]"
< 1,< 1,–,–,CC(=O)N1Cc2cc(C3CCN(S(=O)(=O)C4CC4)CC3)cc(N3CCCc4cc(-c5cnn(C)c5)c(C(F)F)cc43)c2C1 [Compound M001298]
< 1,< 1,–,–,CC(=O)N1Cc2cc([C@H]3CC[C@@H](S(C)(=O)=O)CC3)cc(N3CCCc4cc(-c5cnn(C)c5)c(C(F)F)cc43)c2C1 [Compound M001299]
> 1,> 1,–,–,"CC(=O)N1Cc2cc(C3CCC(N)CC3)cc(N3CCCc4cc(-c5cnn(C)c5)c(C(F)F)cc43)c2C1 (centres unmarked) [Compound M001301, 1-(6-(4-aminocyclohexyl)-4-(7-(difluoromethyl)-6-(1-methyl-1H-pyrazol-4-yl)-3,4-dihydroquinolin-1(2H)-yl)isoindolin-2-yl)ethan-1-one]"
< 1,< 1,–,–,CC(=O)N[C@H]1CC[C@H](c2cc3c(c(N4CCCc5cc(-c6cnn(C)c6)c(C(F)F)cc54)c2)CN(C(C)=O)C3)CC1 [Compound M001304]
< 1,< 1,–,–,CNC(=O)N1CCc2cc(C3CCN(S(=O)(=O)C4CC4)CC3)cc(N3CCCc4cc(-c5cnn(C)c5)c(C(F)F)cc43)c2C1 [Compound M001307]
> 1,< 1,–,–,CNC(=O)N1CCc2cc([C@H]3CC[C@@H](NS(C)(=O)=O)CC3)cc(N3CCCc4cc(-c5cnn(C)c5)c(C(F)F)cc43)c2C1 [Compound M001313]
> 1,< 1,–,–,CSC1CCC(c2cc3c(c(N4CCCc5cc(-c6cnn(C)c6)c(C(F)F)cc54)c2)CN(C(C)=O)C3)CC1 (centres unmarked) [Compound M001315]
–,–,> 1,> 1,CC(=O)N1Cc2cc(C3CCC(N)CC3)cc(N3CCCc4cc(-c5cnn(C)c5)c(C(F)F)cc43)c2C1 (centres unmarked) [Compound M001320]
> 1,> 1,–,–,CC(=O)N1Cc2cc([C@H]3CC[C@@H](N)CC3)cc(N3CCCc4cc(-c5cnn(C)c5)c(C(F)F)cc43)c2C1 [Compound M001321]

# Source: patent publication US20240109868A1, “EP300/CBP MODULATOR, PREPARATION METHOD THEREFOR AND USE THEREOF” (Miracure Biotechnology Limited, priority 2022, published 2024)
